Laboratory results taken from ChEMBL document CHEMBL3639268, “Derivatives of N-acyl-N‚Ä=-phenylpiperazine useful (inter alia) for the prophylaxis or treatment of diabetes” (2014).

Molecular target: Retinol-binding protein 4 (Homo sapiens, UniProt P02753)
Assay: Binding Assay: Streptavidin (20 ul) (10 ug/ml Streptavidin type II (Wako Pure Chemical Industries, Ltd.), 10 mM Tris-HCl (pH 7.5), 10 mM NaCl) was added to a 384 well black plate (Nunc MaxiSorp, Thermo Fisher Scientific Inc.), and the plate was subjected to centrifugation (1000 rpm, 1 min) and coated overnight at 4 C. The plate was washed twice with PBST (PBS, 0.05% Tween 20, 100 ul/well) and blocked with 25% Block Ace (Snow Brand Milk Products Co., Ltd., PBS, 100 ul/well). The plate was subjected to centrifugation (1000 rpm, 1 min) and incubated at room temperature for 4 hr or overnight at 4 C. The plate was washed twice with PBST (PBS, 0.05% Tween 20, 100 ul/well), and biotinylate human TTR (stock solution concentration 1.0 mg/ml) diluted 750-fold with PBST was added at 20 ul/well. The plate was subjected to centrifugation (1000 rpm, 1 min) and stood still at room temperature for 1.5 hr or overnight at 4 C. The plate was washed 3 times with PBST (100 ul/well).

CC(C)(C)c1ccccc1N1CCN(C(=O)c2nc[nH]n2)CC1
IC50: 15 nM
